# Results published in the supplement of paper PMC10307832.
# Columns and labels:
# Test in all cases: relative viability (nuclei count vs DMSO), 5 days (fraction); higher = more cells survive
# BGJ398 + Lapatinib = compound: CCN1CCN(c2ccc(Nc3cc(N(C)C(=O)Nc4c(Cl)c(OC)cc(OC)c4Cl)ncn3)cc2)CC1 [BGJ398] + CS(=O)(=O)CCNCc1ccc(-c2ccc3ncnc(Nc4ccc(OCc5cccc(F)c5)c(Cl)c4)c3c2)o1 [Lapatinib] (partner 2 µM)
# Summary of the method: (§1)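 Five library-drug doses in √10 steps were combined with a fixed anchor-drug dose, or a single drug was given alone, by pin tool to lung cancer cell lines in 1536-well plates the day after seeding. Nuclei were stained and counted after 5 days. Relative viability is the nuclei count in treated wells over that in vehicle wells, taken as the median of duplicate plates.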
# [1] = compound: C1=CC2=NC=CN=C2C=C1/C=C/3\C(=O)NC(=O)S3 + N=C(N)NC(=N)NCCc1ccccc1 [Phenformin] (partner 250 µM)
# Summary of the method: as §1
# [2] = compound: C1=CC2=NC=CN=C2C=C1/C=C/3\C(=O)NC(=O)S3 + O=C(CCCCCCC(=O)Nc1ccccc1)NO [Vorinostat] (partner 1 µM)
# Summary of the method: as §1
# BGJ398 + Vorinostat = compound: CCN1CCN(c2ccc(Nc3cc(N(C)C(=O)Nc4c(Cl)c(OC)cc(OC)c4Cl)ncn3)cc2)CC1 [BGJ398] + O=C(CCCCCCC(=O)Nc1ccccc1)NO [Vorinostat] (partner 1 µM)
# Summary of the method: as §1
Cell Line,relative viability (BGJ398 + Lapatinib; first compound 0.01 µM),relative viability (BGJ398 + Lapatinib; first compound 0.03162 µM),relative viability (BGJ398 + Lapatinib; first compound 0.1 µM),relative viability (BGJ398 + Lapatinib; first compound 0.3162 µM),relative viability (BGJ398 + Lapatinib; first compound 1 µM),relative viability ([1]; first compound 0.02 µM),relative viability ([1]; first compound 0.06325 µM),relative viability ([1]; first compound 0.2 µM),relative viability ([1]; first compound 0.6325 µM),relative viability ([1]; first compound 2 µM),relative viability ([2]; first compound 0.02 µM),relative viability ([2]; first compound 0.06325 µM),relative viability ([2]; first compound 0.2 µM),relative viability ([2]; first compound 0.6325 µM),relative viability ([2]; first compound 2 µM),relative viability (BGJ398 + Vorinostat; first compound 0.01 µM),relative viability (BGJ398 + Vorinostat; first compound 0.03162 µM),relative viability (BGJ398 + Vorinostat; first compound 0.1 µM),relative viability (BGJ398 + Vorinostat; first compound 0.3162 µM),relative viability (BGJ398 + Vorinostat; first compound 1 µM)
SK-LU-1,0.878,1.07,0.979,0.702,0.945,0.681,0.628,0.552,0.554,0.395,0.809,0.818,0.881,0.777,0.72,0.764,0.773,0.839,0.767,0.774
NCI-H1650,0.608,0.828,0.367,0.32,0.234,0.442,0.392,0.503,0.432,0.385,0.572,0.556,0.589,0.525,0.512,0.476,0.493,0.537,0.422,0.448
NCI-H2009,0.863,0.966,0.965,0.924,0.955,0.507,0.454,0.508,0.482,0.461,0.659,0.716,0.714,0.685,0.703,0.714,0.729,0.74,0.687,0.692
LOU-NH91,0.733,0.771,0.731,0.727,0.688,0.712,0.72,0.569,0.703,0.564,0.965,0.887,0.987,0.908,0.727,0.896,0.896,0.957,0.748,0.883
NCI-H2405,1.15,1.32,1.05,1.07,0.857,0.44,0.406,0.397,0.383,0.111,1.04,1.14,1.11,1.08,0.526,1.13,1.04,0.919,0.938,1.01
LCLC-97TM1,0.525,0.745,0.901,0.979,0.868,0.389,0.374,0.423,0.432,0.162,0.617,0.637,0.659,0.576,0.153,0.533,0.691,0.743,0.781,0.753
NCI-H596,1.16,0.937,0.974,0.824,0.496,0.744,0.66,0.742,0.675,0.714,0.581,0.59,0.646,0.499,0.6,0.612,0.619,0.674,0.508,0.528
NCI-H727,1.05,0.799,1.22,0.789,0.648,0.552,0.504,0.686,0.454,0.283,1.23,1.15,1.23,1.22,0.679,1.06,1.26,1.21,1.22,0.858
H3255,0.288,,0.238,0.241,0.219,0.368,0.348,0.358,0.358,0.3,0.781,0.884,0.835,0.865,0.67,0.793,,0.77,,0.795
SK-MES-1,0.414,0.44,0.448,0.396,0.376,0.623,0.697,0.713,0.626,0.645,0.925,0.998,1.08,1.08,0.829,1.05,1.11,1.03,1.09,0.913
NCI-H1437,0.829,0.762,0.905,0.729,0.644,0.258,0.286,0.369,0.274,0.233,0.728,0.874,0.815,0.811,0.815,0.954,0.887,0.794,0.784,0.821
LU99A,0.935,0.896,1.07,0.913,0.85,0.799,0.814,0.862,0.926,0.625,0.425,0.515,0.506,0.42,0.268,0.472,0.437,0.542,0.451,0.486
HCC-827,0.244,,0.163,0.173,0.2,0.481,0.372,0.41,0.427,0.455,0.797,0.702,0.833,0.874,0.465,0.763,,0.87,0.358,0.81
LK-2,0.887,0.754,0.488,0.352,0.26,0.615,0.603,0.488,0.368,0.195,0.245,0.353,0.37,0.213,0.169,0.296,0.334,0.247,0.225,0.207
HCC-366,1.11,1.07,1.07,1.06,0.924,0.609,,0.632,0.612,0.575,0.293,,0.436,0.305,0.204,0.337,0.385,0.371,0.391,0.255
BEN,0.608,0.828,0.7,0.656,0.671,0.253,0.3,0.247,0.275,0.272,0.506,0.553,0.539,0.52,0.477,0.533,0.557,0.594,0.553,0.544
NCI-H23,1.02,1.06,1.3,0.99,1.07,0.79,0.716,0.825,0.781,0.729,0.508,0.588,0.697,0.546,0.385,0.611,0.668,0.722,0.53,0.557
NCI-H1395,1.1,1.75,0.823,0.569,0.476,0.449,0.449,0.47,0.416,0.483,1,0.733,0.824,0.77,0.668,0.754,0.683,0.534,0.469,0.495
201T,1.14,1.02,0.997,1.02,0.697,0.448,0.49,0.452,0.495,0.323,0.763,0.949,0.985,0.898,0.723,1.2,0.947,0.949,0.929,0.885
NCI-H2170,0.289,0.197,0.256,0.268,0.264,0.425,0.375,0.441,0.426,0.423,0.732,0.583,0.846,0.776,0.878,0.823,0.814,0.847,0.821,0.861
NCI-H460,1.02,1.05,1.6,1,1.23,0.477,0.619,0.536,0.516,0.468,0.657,0.668,0.759,0.716,0.819,0.737,0.706,1.18,0.809,0.67
NCI-H661,0.501,0.595,0.473,0.457,0.49,0.239,0.393,0.289,0.298,0.249,0.75,0.86,0.845,0.799,0.948,0.774,0.796,0.806,0.731,0.801
HCC-15,0.854,0.855,0.82,0.969,0.974,0.497,0.471,0.488,0.457,0.336,0.733,0.737,0.872,0.844,0.702,0.809,0.795,0.779,0.824,0.759
ABC-1,1.07,1.06,1.16,1.23,1.22,0.265,0.316,0.215,0.231,0.259,1.27,1.16,1.56,1.01,0.912,1.61,0.855,1.04,,0.937
EPLC-272H,1.13,0.814,0.833,0.748,0.497,0.259,0.302,0.371,0.26,0.297,0.385,0.411,0.562,0.413,0.524,0.531,0.395,0.261,0.5,0.578
